Measurements from patent publication US20040058898A1, “Pharmaceutical composition for alleviating the violence of a mammal comprising nortestosterone derivatives” (priority 2002, published 2004).
Entries after “also recorded” stand apart in the source; their conditions may differ.

What was measured:
Format in all cases: in vivo
[1] = tested on: male lion which violently behaved, cried and did not take feed; assay: Alleviation of the violence and stimulation of the appetite in male lion
[2] = tested on: male dogs which violently behaved, cried and did not take feed; assay: Alleviation of the violence and stimulation of the appetite in male dog; details: male dog 40 kg, intramuscular
Excerpt: (§1) After administration, their behaviors and appetites were observed.

[3] = tested on: male goats which violently behaved, cried and did not take feed; assay: Alleviation of the violence and stimulation of the appetite in male goat; details: male goat 40 kg, intramuscular
Excerpt: as §1

[4] = tested on: male horses which violently behaved, cried and did not take feed; assay: Alleviation of the violence and stimulation of the appetite in male horse; details: male horse 200 kg, intramuscular
Excerpt: as §1

[5] = tested on: male ostriches which violently behaved, cried and did not take feed; assay: Alleviation of the violence and stimulation of the appetite in male ostrich; details: male ostrich 100 kg, intramuscular
Excerpt: as §1

[6] = tested on: male cats which violently behaved, cried and did not take feed; assay: Alleviation of the violence and stimulation of the appetite in male cat; details: male cat 1 kg, intramuscular
Excerpt: as §1

[7] = male lion 100 kg, 100 mg (1 mg per kg), Experimental Example 28
[8] = male lion 100 kg, 10, 20, 50, 100, 150, 200, 500 and 1000 mg (0.1 to 10 mg per kg), Experimental Example 29
[9] = 40 mg (1 mg per kg), Experimental Example 20
[10] = 40 mg (1 mg per kg), Experimental Example 26
[11] = 40 mg (1 mg per kg), Experimental Example 26, listed as 17-decanoate-4-estren-3-one
[12] = 200 mg (1 mg per kg), Experimental Example 24
[13] = 100 mg (1 mg per kg), Experimental Example 1
[14] = 1 mg per Table 5 (1 mg per kg; 100 mg [sic]), Experimental Example 22

CCCCCCCCCC(=O)O[C@H]1CC[C@H]2[C@@H]3CCC4=CC(=O)CC[C@@H]4[C@H]3CC[C@]12C [17β-decanoate-4-estren-3-one]
appetite after intramuscular injection [1, 7]: appetite stimulated
feed intake after administration [1, 7]: increased feed intake
violence of estrus after intramuscular injection [1, 7]: violence of estrus alleviated
appetite after intramuscular injection [1, 8]: appetite stimulated
feed intake after administration [1, 8]: increased feed intake
violence of estrus after intramuscular injection [1, 8]: violence of estrus alleviated
Violence and appetite, After administration: appetite ([2]; 4 mg (0.1 mg per kg), Experimental Example 21): stimulated appetite
Violence and appetite, After administration: appetite ([2]; 8 mg (0.2 mg per kg), Experimental Example 21): stimulated appetite
Violence and appetite, After administration: appetite ([2]; 20 mg (0.5 mg per kg), Experimental Example 21): stimulated appetite
Violence and appetite, After administration: appetite [2, 9]: appetite stimulated; also recorded: stimulated appetite
Violence and appetite, After administration: violence [2, 9]: violence of estrus alleviated
feed intake after administration [2, 9]: increased feed intake
Violence and appetite, After administration: appetite ([2]; 40 mg (1.0 mg per kg), Experimental Example 21): stimulated appetite
Violence and appetite, After administration: appetite ([2]; 60 mg (1.5 mg per kg), Experimental Example 21): stimulated appetite
Violence and appetite, After administration: appetite ([2]; 80 mg (2.0 mg per kg), Experimental Example 21): stimulated appetite
Violence and appetite, After administration: appetite ([2]; 200 mg (5.0 mg per kg), Experimental Example 21): stimulated appetite
Violence and appetite, After administration: appetite ([2]; 400 mg (10 mg per kg), Experimental Example 21): stimulated appetite
Violence and appetite, After administration: appetite ([3]; 4 mg (0.1 mg per kg), Experimental Example 27): stimulated appetite
Violence and appetite, After administration: appetite ([3]; 8 mg (0.2 mg per kg), Experimental Example 27): stimulated appetite
Violence and appetite, After administration: appetite ([3]; 20 mg (0.5 mg per kg), Experimental Example 27): stimulated appetite
Violence and appetite, After administration: appetite [3, 10]: stimulated appetite
feed intake after administration [3, 10]: increased feed intake
Violence and appetite, After administration: appetite [3, 11]: appetite stimulated
Violence and appetite, After administration: violence [3, 11]: violence of estrus alleviated
Violence and appetite, After administration: appetite ([3]; 40 mg (1.0 mg per kg), Experimental Example 27): stimulated appetite
Violence and appetite, After administration: appetite ([3]; 60 mg (1.5 mg per kg), Experimental Example 27): stimulated appetite
Violence and appetite, After administration: appetite ([3]; 80 mg (2.0 mg per kg), Experimental Example 27): stimulated appetite
Violence and appetite, After administration: appetite ([3]; 200 mg (5.0 mg per kg), Experimental Example 27): stimulated appetite
Violence and appetite, After administration: appetite ([3]; 400 mg (10 mg per kg), Experimental Example 27): stimulated appetite
Violence and appetite, After administration: appetite ([4]; 20 mg (0.1 mg per kg), Experimental Example 25): stimulated appetite
Violence and appetite, After administration: appetite ([4]; 40 mg (0.2 mg per kg), Experimental Example 25): stimulated appetite
Violence and appetite, After administration: appetite ([4]; 100 mg (0.5 mg per kg), Experimental Example 25): stimulated appetite
Violence and appetite, After administration: appetite [4, 12]: appetite stimulated; also recorded: stimulated appetite
Violence and appetite, After administration: violence [4, 12]: violence of estrus alleviated
feed intake after administration [4, 12]: increased feed intake
Violence and appetite, After administration: appetite ([4]; 200 mg (1.0 mg per kg), Experimental Example 25): stimulated appetite
Violence and appetite, After administration: appetite ([4]; 300 mg (1.5 mg per kg), Experimental Example 25): stimulated appetite
Violence and appetite, After administration: appetite ([4]; 400 mg (2.0 mg per kg), Experimental Example 25): stimulated appetite
Violence and appetite, After administration: appetite ([4]; 1000 mg (5.0 mg per kg), Experimental Example 25): stimulated appetite
Violence and appetite, After administration: appetite ([4]; 2000 mg (10 mg per kg), Experimental Example 25): stimulated appetite
Violence and appetite, After administration: appetite ([5]; 10 mg (0.1 mg per kg), Experimental Example 2): stimulated appetite
Violence and appetite, After administration: appetite ([5]; 20 mg (0.2 mg per kg), Experimental Example 2): stimulated appetite
Violence and appetite, After administration: appetite ([5]; 50 mg (0.5 mg per kg), Experimental Example 2): stimulated appetite
Violence and appetite, After administration: appetite [5, 13]: appetite stimulated; also recorded: stimulated appetite
Violence and appetite, After administration: violence [5, 13]: violence of estrus alleviated
feed intake after administration [5, 13]: increased feed intake
Violence and appetite, After administration: appetite ([5]; 100 mg (1.0 mg per kg), Experimental Example 2): stimulated appetite
Violence and appetite, After administration: appetite ([5]; 150 mg (1.5 mg per kg), Experimental Example 2): stimulated appetite
Violence and appetite, After administration: appetite ([5]; 200 mg (2.0 mg per kg), Experimental Example 2): stimulated appetite
Violence and appetite, After administration: appetite ([5]; 500 mg (5.0 mg per kg), Experimental Example 2): stimulated appetite
Violence and appetite, After administration: appetite ([5]; 1000 mg (10 mg per kg), Experimental Example 2): stimulated appetite
Violence and appetite, After administration: appetite ([6]; 0.1 mg (0.1 mg per kg), Experimental Example 23): stimulated appetite
Violence and appetite, After administration: appetite ([6]; 0.2 mg (0.2 mg per kg), Experimental Example 23): stimulated appetite
Violence and appetite, After administration: appetite ([6]; 0.5 mg (0.5 mg per kg), Experimental Example 23): stimulated appetite
Violence and appetite, After administration: appetite ([6]; 1 mg (1.0 mg per kg), Experimental Example 23): stimulated appetite
Violence and appetite, After administration: appetite [6, 14]: appetite stimulated; also recorded: stimulated appetite
Violence and appetite, After administration: violence [6, 14]: violence of estrus alleviated
feed intake after administration [6, 14]: increased feed intake
Violence and appetite, After administration: appetite ([6]; 1.5 mg (1.5 mg per kg), Experimental Example 23): stimulated appetite
Violence and appetite, After administration: appetite ([6]; 2 mg (2.0 mg per kg), Experimental Example 23): stimulated appetite
Violence and appetite, After administration: appetite ([6]; 5 mg (5.0 mg per kg), Experimental Example 23): stimulated appetite
Violence and appetite, After administration: appetite ([6]; 10 mg (10 mg per kg), Experimental Example 23): stimulated appetite
